Like-named read-outs stand apart in the source and are kept apart here.
Assays:
[1] = tested on: human prostrate tumor cells; conditions: concurrent exposure
Procedure: The MTT assay is a spectrophotometric assay based on the ability of viable cells to convert MTT to formazan. Cell concentrations were estimated by measuring absorbance at test wavelength of 570 nm and a reference wavelength of 630 nm. An automated procedure was utilized to determine the IC50 value (concentration of drug which inhibits cell growth by 50% of the control) of all agents used in these studies.
After the initial IC50 analysis was complete, the combinations were then tested. For the combination studies, the concentration (expressed as a percent of the individual agent's IC50) schema used to characterise the type of interaction is shown below:
If the majority of (≧3 of 5) of the values are statistically above or below the line (endpoints) then antagonism or synergy is described, respectively. Otherwise, the pattern is more consistent with an additive interaction.

[2] = tested on: breast tumor cells (MDA-435); assay: MTT assay, 24 hour pre-exposure to roscovitine followed by 24 hour exposure to gemcitabine; type: cell-based; conditions: 24 h roscovitine then 24 h gemcitabine
[3] = % IC50 0/100: roscovitine 0, gemcitabine 11.25 ng/ml
[4] = % IC50 0/100: roscovitine 0, gemcitabine 15.00 ng/ml
[5] = % IC50 100/0: roscovitine 6.75 ug/ml, gemcitabine 0
[6] = % IC50 100/0: roscovitine 9.00 ug/ml, gemcitabine 0

Structure (SMILES)	% Abs [1, 3]	% Response [1, 3]	% Abs [2, 4]	% Response [2, 4]	% Abs [1, 5]	% Response [1, 5]	% Abs [2, 6]	% Response [2, 6]
Nc1ccn([C@@H]2O[C@H](CO)[C@@H](O)C2(F)F)c(=O)n1 [Gemc., 2′-deoxy-2′,2′-difluorocytidine]	93.1%	6.9%	85.0%	15.0%				
CC[C@H](CO)Nc1nc(NCc2ccccc2)c2ncn(C(C)C)c2n1 [Roscovitine, 6-benzylamino-2-[(R)-1-ethyl-2-hydroxyethylamino]-9-isopropylpurine]					83.3%	16.7%	64.5%	35.5%

Reference: patent US20050267066A1, “Pharmaceutical composition comprising a CDK inhibitor and gemcitabine” (Cyclacel Limited, priority 2002, published 2005)
